Test results: the supplement of paper PMC6045584

These test systems were tested with NC1(c2ccc(-c3nc4ccn5c(=O)[nH]nc5c4cc3-c3ccccc3)cc2)CCC1 [MK2206] (assay: area under dose-response curve of surviving fraction (unscaled, Aref=0) (surviving fraction x log10(nM)); higher = more resistant). Conditions: exposure time: 5 days; dose range 0.5-1000 nM.
Summary of the method: (§1)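 Tumour cell lines in 384-well plates were exposed to eight inhibitor concentrations, from 0.5 to 1000 nM, for five days, and viability was read by CellTiter-Glo luminescence in three screens per line. Signals were normalised to DMSO-only wells, and 3-parameter logistic regression in the drc R package fitted dose-response survival curves to the surviving fractions. Area under the curve is given as the unscaled activity area. That area is taken over log10 dose with Aref = 0.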

Point of comparison: SCC47 HEADNECK, “area under dose-response curve” value 3.26. Against it:
- OSHN BONE — higher, 3.58
- S68 BREAST — lower, 2.5
- SAOS2 BONE — lower, 3.03
- SCC36 HEADNECK — lower, 2.91
- SCC90 HEADNECK — lower, 3.03
- SG32 HEADNECK — higher, 3.68
- SIHA CERVIX — lower, 3.01
- SJSA1 BONE — lower, 3.03
- SKBR3 BREAST — lower, 2.48
- SUM149 BREAST — lower, 3.19
- SUM149.B1*.S BREAST — higher, 3.63
- SUM159 BREAST — higher, 3.58
- VCAP PROSTATE — lower, 2.65
- YAMATO SYNOVIAL — lower, 2.75
- ZR751 BREAST — lower, 1.96

These test systems were tested with Nc1ccn([C@@H]2O[C@H](CO)[C@@H](O)C2(F)F)c(=O)n1 [GEMCITABINE] in the same assay as above. Conditions: exposure time: 5 days; dose range 0.5-1000 nM.
Summary of the method: as §1

Point of comparison: NCIH441 LUNG, “area under dose-response curve” value 0.954. Against it:
- 93VU HEADNECK — higher, 2
- A549 LUNG — higher, 1.76
- ASKA SYNOVIAL — higher, 1.03
- BT20 BREAST — higher, 1.55
- BT549 BREAST — higher, 1.03
- CME SYNOVIAL — higher, 1.25
- HCC38 BREAST — higher, 1.01
- HCC1806 BREAST — lower, 0.258
- HELA CERVIX — higher, 1.75
- HMLE3 BREAST — higher, 1.1
- HMT3552 BREAST — higher, 2.53
- HOSMNG BONE — higher, 1.49
- HS578T BREAST — higher, 3.12
- HT1080 SOFT TISSUE — higher, 1.22
- HU09 BONE — lower, 0.594
- JURKAT HAEMATOPOIETIC AND LYMPHOID TISSUE — higher, 1.01
- LM7 BONE — higher, 1.12
- MDAMB453 BREAST — higher, 1.47
- MG63 BONE — higher, 1.03
- NOS1 BONE — higher, 2.31
- RDES SOFT TISSUE — higher, 1.4
- S68 BREAST — higher, 1.22
- SAOS2 BONE — higher, 0.983
- SCC36 HEADNECK — higher, 2.34
- SCC47 HEADNECK — higher, 2.22
- SCC90 HEADNECK — higher, 1.46
- SG27 HEADNECK — higher, 3.22
- SG31 HEADNECK — higher, 2.51
- SG32 HEADNECK — higher, 1.77
- SIHA CERVIX — higher, 2.4
- SJSA1 BONE — higher, 5.62
- SKBR3 BREAST — higher, 1.76
- SUM149 BREAST — lower, 0.539
- SUM149.B1*.S BREAST — higher, 1.44
- SUM159 BREAST — higher, 1.68
- VCAP PROSTATE — higher, 1.1
- VP229 BREAST — higher, 1.97
- YAMATO SYNOVIAL — higher, 1.25
- ZR751 BREAST — higher, 2.02

Each test system was assayed with O=C(NOCC1CC1)c1ccc(F)c(F)c1Nc1ccc(I)cc1Cl in the same assay as above. Conditions: exposure time: 5 days; dose range 0.5-1000 nM.
Summary of the method: as §1

Point of comparison: SUM44 BREAST, “area under dose-response curve” value 3.4. Against it:
- 93VU HEADNECK — lower, 2.54
- 143B BONE — lower, 3.23
- A549 LUNG — lower, 3.13
- ASKA SYNOVIAL — lower, 3.28
- BT20 BREAST — lower, 3.11
- CME SYNOVIAL — lower, 3.27
- HCC38 BREAST — higher, 3.59
- HCC202 BREAST — higher, 4.68
- HMLE3 BREAST — lower, 2.57
- HOSMNG BONE — lower, 3.32
- HS578T BREAST — lower, 3.18
- HT1080 SOFT TISSUE — lower, 3.16
- MDAMB157 BREAST — lower, 2.81
- MDAMB453 BREAST — lower, 3.37
- MG63 BONE — lower, 3.12
- NCIH441 LUNG — lower, 2.98
- OSHN BONE — lower, 3.24
- RDES SOFT TISSUE — higher, 4.3
- S68 BREAST — lower, 2.84
- SAOS2 BONE — lower, 3.22
- SCC47 HEADNECK — lower, 2.91
- SCC90 HEADNECK — lower, 2.18
- SG28 HEADNECK — lower, 2.72
- SG31 HEADNECK — lower, 2.78
- SG32 HEADNECK — lower, 2.65
- SIHA CERVIX — lower, 2.76
- SJSA1 BONE — lower, 3.08
- SUM149 BREAST — lower, 2.25
- SUM149.B1*.S BREAST — lower, 2.74
- SUM159 BREAST — lower, 2.75
- VCAP PROSTATE — lower, 3.17
- YAMATO SYNOVIAL — lower, 3.26
- ZR751 BREAST — lower, 2.56

These test systems were tested with O=C(O)CC[C@H]1CC[C@@](c2cc(F)ccc2F)(S(=O)(=O)c2ccc(Cl)cc2)CC1 [MK0752] in the same assay as above. Conditions: exposure time: 5 days; dose range 0.5-1000 nM.
Summary of the method: as §1

Point of comparison: MDAMB453 BREAST, “area under dose-response curve” value 3.54. Against it:
- 93VU HEADNECK — higher, 3.92
- 143B BONE — lower, 3.49
- A549 LUNG — lower, 3.48
- CME SYNOVIAL — higher, 4.45
- HCC38 BREAST — higher, 4.01
- HCC1806 BREAST — higher, 3.93
- HELA CERVIX — lower, 3.42
- HOSMNG BONE — lower, 3.3
- HS578T BREAST — lower, 3.05
- HT1080 SOFT TISSUE — lower, 3.29
- HU09 BONE — the same, 3.54
- JURKAT HAEMATOPOIETIC AND LYMPHOID TISSUE — lower, 3.4
- LM7 BONE — lower, 3.27
- NCIH441 LUNG — lower, 3.43
- RDES SOFT TISSUE — higher, 3.76
- S68 BREAST — lower, 3.26
- SAOS2 BONE — higher, 3.89
- SG28 HEADNECK — higher, 3.56
- SG31 HEADNECK — lower, 3.35
- SG32 HEADNECK — higher, 3.82
- SIHA CERVIX — higher, 3.79
- SJSA1 BONE — lower, 3.53
- SKBR3 BREAST — lower, 3.29
- SUM44 BREAST — lower, 3.38
- SUM149.B1*.S BREAST — higher, 3.78
- VCAP PROSTATE — higher, 3.78
- YAMATO SYNOVIAL — higher, 4.77
- ZR751 BREAST — higher, 3.79
